Test results from the supplement of paper PMC10307832.

Assays:
Test in all cases: relative viability (nuclei count vs DMSO), 5 days (fraction); higher = more cells survive
NCI-H1793 = system: NCI-H1793
Summary of the method: (§1)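 A single step with final 0.05% Triton X-100, 1% formaldehyde and 1 ug/ml Hoechst fixed the cells and stained nuclei 5 days after treatment. Lung cancer cell lines in 1536-well plates had been treated by pin tool the day after seeding with one drug alone or a fixed anchor-drug dose plus five library-drug doses (not always all listed) in √10 steps, and nuclei were counted on 4× images. Relative viability is the ratio of nuclei in treated wells to nuclei in vehicle wells, taken as the median of duplicate plates.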

NCI-H1944 = system: NCI-H1944
Summary of the method: as §1

NCI-H1993 = system: NCI-H1993
Summary of the method: as §1

NCI-H2023 = system: NCI-H2023
Summary of the method: as §1

NCI-H2126 = system: NCI-H2126
Summary of the method: as §1

NCI-H2228 = system: NCI-H2228
Summary of the method: as §1

NCI-H23 = system: NCI-H23
Summary of the method: as §1

NCI-H2405 = system: NCI-H2405
Summary of the method: as §1

NCI-H358 = system: NCI-H358
Summary of the method: as §1

NCI-H838 = system: NCI-H838
Summary of the method: as §1

SK-LU-1 = system: SK-LU-1
Summary of the method: as §1

How did the relative viability (NCI-H1793; first compound 0.000632 µM) turn out when `CC(=O)O[C@@]12CO[C@@H]1C[C@H](O)[C@@]1(C)C(=O)[C@H](O)C3=C(C)[C@@H](OC(=O)[C@H](O)[C@@H](NC(=O)OC(C)(C)C)c4ccccc4)C[C@@](O)([C@@H](OC(=O)c4ccccc4)[C@H]21)C3(C)C` [Docetaxel] + N=C(N)NC(=N)NCCc1ccccc1 [Phenformin] (partner 250 µM) was run?
The relative viability was 0.319.

What about the relative viability (NCI-H1793; first compound 0.002 µM) of the same molecule?
The relative viability was 0.322.

What about the relative viability (NCI-H1793; first compound 0.006325 µM) of the same molecule?
Its relative viability is 0.245.

What about the relative viability (NCI-H1793; first compound 0.02 µM) of the same molecule?
Its relative viability is 0.173.

And the relative viability (NCI-H1944; first compound 0.0002 µM)?
The relative viability was 0.182.

What about the relative viability (NCI-H1944; first compound 0.000632 µM) of the same molecule?
The relative viability was 0.188.

And the relative viability (NCI-H1944; first compound 0.002 µM)?
Its relative viability is 0.163.

And the relative viability (NCI-H1944; first compound 0.006325 µM)?
The relative viability was 0.133.

What about the relative viability (NCI-H1944; first compound 0.02 µM) of the same molecule?
Its relative viability is 0.0967.

And the relative viability (NCI-H1993; first compound 0.0002 µM)?
The relative viability was 0.559.

What about the relative viability (NCI-H1993; first compound 0.000632 µM) of the same molecule?
Its relative viability is 0.604.

What about the relative viability (NCI-H1993; first compound 0.002 µM) of the same molecule?
The relative viability was 0.556.

And the relative viability (NCI-H1993; first compound 0.006325 µM)?
Its relative viability is 0.489.

What about the relative viability (NCI-H1993; first compound 0.02 µM) of the same molecule?
The relative viability was 0.439.

What about the relative viability (NCI-H2023; first compound 0.0002 µM) of the same molecule?
The relative viability was 0.358.

And the relative viability (NCI-H2023; first compound 0.000632 µM)?
The relative viability was 0.292.

What about the relative viability (NCI-H2023; first compound 0.002 µM) of the same molecule?
The relative viability was 0.118.

And the relative viability (NCI-H2023; first compound 0.006325 µM)?
The relative viability was 0.0961.

What about the relative viability (NCI-H2023; first compound 0.02 µM) of the same molecule?
Its relative viability is 0.0806.

And the relative viability (NCI-H2126; first compound 0.0002 µM)?
The relative viability was 0.517.

And the relative viability (NCI-H2126; first compound 0.000632 µM)?
Its relative viability is 0.468.

What about the relative viability (NCI-H2126; first compound 0.002 µM) of the same molecule?
The relative viability was 0.297.

And the relative viability (NCI-H2126; first compound 0.006325 µM)?
The relative viability was 0.33.

And the relative viability (NCI-H2126; first compound 0.02 µM)?
The relative viability was 0.223.

What about the relative viability (NCI-H2228; first compound 0.0002 µM) of the same molecule?
Its relative viability is 0.302.

What about the relative viability (NCI-H2228; first compound 0.000632 µM) of the same molecule?
Its relative viability is 0.173.

What about the relative viability (NCI-H2228; first compound 0.002 µM) of the same molecule?
The relative viability was 0.147.

What about the relative viability (NCI-H2228; first compound 0.006325 µM) of the same molecule?
The relative viability was 0.158.

And the relative viability (NCI-H2228; first compound 0.02 µM)?
The relative viability was 0.123.

What about the relative viability (NCI-H23; first compound 0.0002 µM) of the same molecule?
The relative viability was 0.801.

And the relative viability (NCI-H23; first compound 0.000632 µM)?
Its relative viability is 0.702.

What about the relative viability (NCI-H23; first compound 0.002 µM) of the same molecule?
Its relative viability is 0.475.

What about the relative viability (NCI-H23; first compound 0.006325 µM) of the same molecule?
The relative viability was 0.2.

What about the relative viability (NCI-H23; first compound 0.02 µM) of the same molecule?
Its relative viability is 0.121.

What about the relative viability (NCI-H2405; first compound 0.0002 µM) of the same molecule?
The relative viability was 0.393.

And the relative viability (NCI-H2405; first compound 0.000632 µM)?
Its relative viability is 0.419.

What about the relative viability (NCI-H2405; first compound 0.002 µM) of the same molecule?
The relative viability was 0.315.

What about the relative viability (NCI-H2405; first compound 0.006325 µM) of the same molecule?
The relative viability was 0.297.

What about the relative viability (NCI-H2405; first compound 0.02 µM) of the same molecule?
The relative viability was 0.26.

And the relative viability (NCI-H358; first compound 0.0002 µM)?
Its relative viability is 0.247.

And the relative viability (NCI-H358; first compound 0.000632 µM)?
The relative viability was 0.188.

What about the relative viability (NCI-H358; first compound 0.006325 µM) of the same molecule?
The relative viability was 0.0907.

What about the relative viability (NCI-H358; first compound 0.02 µM) of the same molecule?
The relative viability was 0.0664.

And the relative viability (NCI-H838; first compound 0.0002 µM)?
Its relative viability is 0.533.

What about the relative viability (NCI-H838; first compound 0.000632 µM) of the same molecule?
Its relative viability is 0.386.

And the relative viability (NCI-H838; first compound 0.002 µM)?
Its relative viability is 0.198.

And the relative viability (NCI-H838; first compound 0.006325 µM)?
The relative viability was 0.161.

What about the relative viability (NCI-H838; first compound 0.02 µM) of the same molecule?
The relative viability was 0.108.

And the relative viability (SK-LU-1; first compound 0.0002 µM)?
The relative viability was 0.48.

And the relative viability (SK-LU-1; first compound 0.000632 µM)?
Its relative viability is 0.285.

What about the relative viability (SK-LU-1; first compound 0.002 µM) of the same molecule?
The relative viability was 0.239.

What about the relative viability (SK-LU-1; first compound 0.006325 µM) of the same molecule?
The relative viability was 0.183.

What about the relative viability (SK-LU-1; first compound 0.02 µM) of the same molecule?
Its relative viability is 0.115.
